Results on six compounds are retold here after US20220226508A1, “METHODS AND COMPOSITIONS FOR TREATING EPILEPSY” (THE REGENTS OF THE UNIVERSITY OF CALIFORNIA, priority 2019, published 2022).

Entries after “also recorded” stand apart in the source; their conditions may differ. Read-outs that look alike come from different tables or passages of the source. Some results are limits rather than exact numbers.

Series [1] has as its target T1, human 5-HT2CR (Homo sapiens, UniProt P28335).
T1 construct: expressed in transfected cells
T1 sequence (P28335 33-458): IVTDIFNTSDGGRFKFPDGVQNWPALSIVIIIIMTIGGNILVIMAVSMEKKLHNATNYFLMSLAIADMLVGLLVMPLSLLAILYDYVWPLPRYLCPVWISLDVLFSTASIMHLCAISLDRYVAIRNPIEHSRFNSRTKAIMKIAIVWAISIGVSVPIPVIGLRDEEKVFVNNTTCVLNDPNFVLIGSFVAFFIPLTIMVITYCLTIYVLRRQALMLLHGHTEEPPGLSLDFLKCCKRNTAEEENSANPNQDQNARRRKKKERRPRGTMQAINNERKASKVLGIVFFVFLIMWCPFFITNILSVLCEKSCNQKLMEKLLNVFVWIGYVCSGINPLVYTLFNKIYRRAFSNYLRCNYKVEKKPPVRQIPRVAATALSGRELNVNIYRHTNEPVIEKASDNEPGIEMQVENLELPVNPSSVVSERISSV
The series can be described thus: Radioligand binding assay (NIMH PDSP), 5-HT2CR. Here is the method: (§1) Receptor Binding Assays. In vitro binding assay and Ki data were performed by the US National Institute of Mental Health Psychoactive Drug Screening Program (NIMH PDSP). Drugs were screened against recombinant, stably expressed human 5-HT2AR, 5-HT2BR, 5-HT2CR and H1. For specific binding assays please refer to detailed procedures at https://pdspdb.unc.edu/pdspWeb/ (Besnard, J. et al., Nature, 492, 215-220, 2012).

Series [2] has as its target T2, human H1 receptor (Homo sapiens, UniProt P35367). The series can be described thus: Radioligand binding assay (NIMH PDSP), H1. On the set-up: expressed in transfected cells. Here is the method:
as §1

Series [3] in a line: Solubility in the screening medium. The conditions noted are these: 250 μM. It is filed as physicochemical. Here is the method: 10 mM compound stock solutions were made in DMSO and then diluted in embryo medium for assays.
Series [4] addresses T3, human 5-HT2AR (Homo sapiens, UniProt P28223).
T3 construct: expressed in transfected cells
The series can be described thus: biochemical. The series is classed as binding. The procedure: as §1

The target in series [5] is T4, human 5-HT2BR (Homo sapiens, UniProt P41595).
T4 construct: expressed in transfected cells
The series can be described thus: biochemical. The series is classed as binding. Here is the method: as §1

Series [6] has as its system scn1lab mutant zebrafish. The series can be described thus: Locomotion assay of high-velocity seizure-like swim behavior. The series is classed as in vivo, zebrafish (Danio rerio). The text has this: Zebrafish maintenance. Zebrafish were raised under standard laboratory conditions in accordance with requirements outlined in the Guide for the Care and Use of Animals (ebrary Inc., 2011) and experiments were approved by the Institutional Animal Care and Use Committee (protocol #AN108659-03). Embryos were obtained by natural spawning of scn1lab (didy^s552) heterozygous animals that had been outcrossed to TL strain. Homozygous scn1lab mutants (n=2500) have dispersed melanosomes and appear visibly darker by 3 dpf compared to WT larvae.
Seizure monitoring. At 5 dpf individual zebrafish larvae were placed into a single well of a clear flat-bottomed 96-well microplate containing embryo media. Larvae were selected randomly as sex determination is not possible at this stage of development. All drug screening experiments were conducted in an unbiased manner by investigators blinded to the test compounds and all files coded for post hoc analysis. Microplates were placed inside the DanioVision and acclimated for 20 min at room temperature. Locomotion plots were obtained for each well at a recording epoch of 10 min using EthoVision XT software (DanioVision, Noldus Information Technology). Seizure scoring was performed using the following three-stage scale established for pentylenetetrazole-induced seizures: Stage 0, no or very little swim activity; Stage I, increased, brief bouts of swim activity; Stage II, rapid “whirlpool-like” circling swim behavior; and Stage III, paroxysmal whole-body clonus-like convulsions, and a brief loss of posture. WT fish are typically scored at Stage 0 or I. Plots were analyzed for distance travelled (in millimeters) and mean velocity (in millimeters per second). After 90 mins of drug exposure larvae were examined for toxic side-effects. Compounds that decreased or stopped the larva heartbeat, or reduced or eliminated the escape response when touched, were considered toxic.
Statistics. Data are presented as the mean±standard error of the mean (SEM), unless otherwise stated. For behavior analysis, the threshold for a change in mean swim velocity ≥40% (>1.5×SD of 250 control treated scn1lab) is considered significant. For comparison between more than two groups one-way ANOVA analysis was used. […] Differences considered statistically significant are indicated with asterisks (*P<0.05; **P<0.01).

Series [7] deals with T1, human 5-HT2CR. Particulars: known drugs and commercial compounds; read-out: binding affinity (Ki) 5-HT2C / 5-HT2CR; cited from earlier work.
For series [8], the target named is T3, human 5-HT2AR. Particulars: read-out: binding affinity (Ki) 5-HT2A / 5-HT2AR, cited from earlier work.
Series [9] addresses Histamine H3 (Homo sapiens, UniProt Q9Y5N1). Particulars: read-out: binding affinity (Ki) Histamine H3; cited from earlier work.
The subject of series [10] is scn1lab mutant zebrafish. The experiment in a line: Local field potential (LFP) electrophysiology of electrographic seizure events. It is filed as in vivo, zebrafish (Danio rerio). The procedure: For electrophysiology studies, zebrafish larvae were anesthetized with cold and immobilized in 1.2% agarose; local field potential (LFP) recordings were obtained from forebrain or optic tectum structures using a single-electrode approach, as previously described (Baraban, S. C. et al., Neuroscience, 131, 759-768, 2005). Agarose-embedded LFP recording sessions of 10 min were obtained at 1 kHz. Epileptiform events were identified post hoc and defined as multi-spike or poly-spike upward or downward membrane deflections greater than 3× baseline noise level and 150-250 ms in duration (interictal-like) or greater than 5× baseline noise, multi-spike and >500 ms in duration (ictal-like); both events were counted using threshold detection settings in Clampfit (Molecular Devices; Sunnyvale, Calif.). During electrophysiology experiments larvae were continuously monitored for blood flow and heart rate using an Axiocam digital camera at video frame rate.
Monitoring electrographic brain activity to confirm seizure suppression is an essential assay to eliminate false positives from behavioral testing (Griffin, A. et al., Frontiers in Pharmacology, 9, 2018). By placing a microelectrode into a visually identified brain region of an agar-immobilized zebrafish larval, stable local field potential (LFP) recordings can be monitored for several hours (Baraban, S. C. et al., Nat Commun, 4, 2410, 2013). At 5 dpf LFP recordings of scn1Lab zebrafish larvae show an average of 250 abnormal electrographic seizure events during a 10 min recording epoch.

Series [11] concerns the target T2, human H1 receptor. Particulars: read-out: binding affinity (Ki) Histamine H1; cited from earlier work.
The target in series [12] is T4, human 5-HT2BR. Particulars: known drugs and commercial compounds; read-out: binding affinity (Ki) 5-HT2B / 5-HT2BR; cited from earlier work.
In series [13] the target is T5, 5-HT1A (Homo sapiens, UniProt P08908).
T5 sequence (P08908 1-422): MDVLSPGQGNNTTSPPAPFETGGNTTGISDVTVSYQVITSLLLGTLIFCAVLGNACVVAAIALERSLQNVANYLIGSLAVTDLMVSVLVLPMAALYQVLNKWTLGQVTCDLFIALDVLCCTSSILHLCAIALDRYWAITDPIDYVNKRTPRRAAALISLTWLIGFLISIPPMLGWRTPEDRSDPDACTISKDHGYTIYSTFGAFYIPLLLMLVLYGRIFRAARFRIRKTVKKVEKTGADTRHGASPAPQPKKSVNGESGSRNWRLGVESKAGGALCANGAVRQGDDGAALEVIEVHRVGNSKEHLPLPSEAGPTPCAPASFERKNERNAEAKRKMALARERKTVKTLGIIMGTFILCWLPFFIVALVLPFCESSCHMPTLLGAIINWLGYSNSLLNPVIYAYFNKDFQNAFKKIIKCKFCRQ
The conditions noted are these: read-out: binding affinity (Ki) 5-HT1A; cited from earlier work.

Series [14] addresses 5-HT7 (Homo sapiens, UniProt P34969). Particulars: read-out: binding affinity (Ki) 5-HT7; cited from earlier work.
Series [15] deals with 5-HT Transporter (Homo sapiens, UniProt P31645). The conditions noted are these: read-out: binding affinity (Ki) 5-HT Transporter; cited from earlier work.
The target of series [16] is Norepinephrine Transporter (Homo sapiens, UniProt P23975). The conditions noted are these: read-out: binding affinity (Ki) Norepinephrine Transporter; cited from earlier work.
Series [17] addresses 5-HT5 (Homo sapiens, UniProt P47898). The conditions noted are these: read-out: binding affinity (Ki) 5-HT5; cited from earlier work.
In series [18] the target is 5-HT6 (Homo sapiens, UniProt P50406). Particulars: read-out: binding affinity (Ki) 5-HT6; cited from earlier work.
Series [19] concerns human 5-HT2R. The series can be described thus: Radioligand binding assays (NIMH PDSP), 5-HT2R subtypes together. The conditions noted are these: 5-HT2AR, 5-HT2BR, 5-HT2CR. Here is the method:
Receptor Binding Assays. In vitro binding assay and Ki data were performed by the US National Institute of Mental Health Psychoactive Drug Screening Program (NIMH PDSP). Drugs were screened against recombinant, stably expressed human 5-HT2AR, 5-HT2BR, 5-HT2CR and H1.

T2 sequence (P35367 whole entry): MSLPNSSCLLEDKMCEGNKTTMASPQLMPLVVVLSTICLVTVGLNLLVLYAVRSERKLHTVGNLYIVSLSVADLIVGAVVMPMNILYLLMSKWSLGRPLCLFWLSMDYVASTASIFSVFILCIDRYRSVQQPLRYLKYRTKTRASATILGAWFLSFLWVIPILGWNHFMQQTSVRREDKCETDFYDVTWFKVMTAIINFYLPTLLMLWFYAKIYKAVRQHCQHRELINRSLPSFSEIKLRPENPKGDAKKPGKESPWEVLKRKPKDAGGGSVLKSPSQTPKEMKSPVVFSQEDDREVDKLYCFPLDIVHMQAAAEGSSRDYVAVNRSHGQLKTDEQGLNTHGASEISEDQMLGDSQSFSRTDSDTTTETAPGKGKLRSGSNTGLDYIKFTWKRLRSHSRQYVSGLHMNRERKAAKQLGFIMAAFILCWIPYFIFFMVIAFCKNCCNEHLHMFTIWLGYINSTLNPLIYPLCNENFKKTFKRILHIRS
T3 sequence (P28223 whole entry): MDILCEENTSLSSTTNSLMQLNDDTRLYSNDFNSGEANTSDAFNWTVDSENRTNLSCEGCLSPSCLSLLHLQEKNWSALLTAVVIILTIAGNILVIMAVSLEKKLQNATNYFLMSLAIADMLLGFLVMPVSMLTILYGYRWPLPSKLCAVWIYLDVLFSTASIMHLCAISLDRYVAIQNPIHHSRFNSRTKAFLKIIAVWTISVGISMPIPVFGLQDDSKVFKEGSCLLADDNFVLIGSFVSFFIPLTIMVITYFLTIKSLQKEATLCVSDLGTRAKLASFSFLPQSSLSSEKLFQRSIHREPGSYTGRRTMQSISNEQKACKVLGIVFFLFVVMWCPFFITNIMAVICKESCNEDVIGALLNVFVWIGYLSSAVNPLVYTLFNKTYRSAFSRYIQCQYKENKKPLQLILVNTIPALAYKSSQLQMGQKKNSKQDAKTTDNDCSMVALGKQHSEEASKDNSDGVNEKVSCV
T4 sequence (P41595 whole entry): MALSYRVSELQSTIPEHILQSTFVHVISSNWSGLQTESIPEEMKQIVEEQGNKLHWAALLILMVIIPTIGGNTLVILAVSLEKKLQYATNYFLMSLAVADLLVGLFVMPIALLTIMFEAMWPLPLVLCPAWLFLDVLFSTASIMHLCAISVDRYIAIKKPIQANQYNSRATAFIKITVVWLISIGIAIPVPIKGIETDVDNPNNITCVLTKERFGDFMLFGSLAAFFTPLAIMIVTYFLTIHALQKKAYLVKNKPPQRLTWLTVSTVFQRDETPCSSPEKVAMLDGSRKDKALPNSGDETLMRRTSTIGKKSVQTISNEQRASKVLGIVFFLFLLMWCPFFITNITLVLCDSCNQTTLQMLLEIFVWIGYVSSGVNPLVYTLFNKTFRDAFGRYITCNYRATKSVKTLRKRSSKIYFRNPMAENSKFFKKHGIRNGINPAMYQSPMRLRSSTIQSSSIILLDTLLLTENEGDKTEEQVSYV
Chain of 5-HT7 (P34969 whole entry, species assumed): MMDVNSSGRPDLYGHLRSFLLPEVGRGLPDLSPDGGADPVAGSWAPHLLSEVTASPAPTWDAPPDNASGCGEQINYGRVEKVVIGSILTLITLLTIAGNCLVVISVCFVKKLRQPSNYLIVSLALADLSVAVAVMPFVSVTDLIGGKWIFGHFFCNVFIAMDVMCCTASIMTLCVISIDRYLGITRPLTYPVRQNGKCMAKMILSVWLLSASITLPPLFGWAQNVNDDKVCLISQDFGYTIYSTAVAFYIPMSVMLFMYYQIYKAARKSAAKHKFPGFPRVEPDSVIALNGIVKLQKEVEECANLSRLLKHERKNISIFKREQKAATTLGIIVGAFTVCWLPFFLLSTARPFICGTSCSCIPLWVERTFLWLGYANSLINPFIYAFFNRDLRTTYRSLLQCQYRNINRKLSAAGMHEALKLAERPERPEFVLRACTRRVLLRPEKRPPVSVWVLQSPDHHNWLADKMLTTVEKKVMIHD
Chain of Histamine H3 (Q9Y5N1 whole entry): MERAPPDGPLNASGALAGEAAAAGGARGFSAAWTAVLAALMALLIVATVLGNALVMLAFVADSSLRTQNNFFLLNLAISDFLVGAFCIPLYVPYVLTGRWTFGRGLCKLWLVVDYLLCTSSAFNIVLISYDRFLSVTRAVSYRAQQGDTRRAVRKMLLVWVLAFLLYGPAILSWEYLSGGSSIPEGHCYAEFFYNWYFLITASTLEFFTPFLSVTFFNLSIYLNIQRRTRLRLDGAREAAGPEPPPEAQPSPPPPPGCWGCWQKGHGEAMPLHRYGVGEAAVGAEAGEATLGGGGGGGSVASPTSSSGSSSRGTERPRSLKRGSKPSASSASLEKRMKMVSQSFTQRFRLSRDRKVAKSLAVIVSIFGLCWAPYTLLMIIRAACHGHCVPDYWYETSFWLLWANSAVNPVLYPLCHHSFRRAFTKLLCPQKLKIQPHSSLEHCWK
Chain of 5-HT6 (P50406 whole entry, species assumed): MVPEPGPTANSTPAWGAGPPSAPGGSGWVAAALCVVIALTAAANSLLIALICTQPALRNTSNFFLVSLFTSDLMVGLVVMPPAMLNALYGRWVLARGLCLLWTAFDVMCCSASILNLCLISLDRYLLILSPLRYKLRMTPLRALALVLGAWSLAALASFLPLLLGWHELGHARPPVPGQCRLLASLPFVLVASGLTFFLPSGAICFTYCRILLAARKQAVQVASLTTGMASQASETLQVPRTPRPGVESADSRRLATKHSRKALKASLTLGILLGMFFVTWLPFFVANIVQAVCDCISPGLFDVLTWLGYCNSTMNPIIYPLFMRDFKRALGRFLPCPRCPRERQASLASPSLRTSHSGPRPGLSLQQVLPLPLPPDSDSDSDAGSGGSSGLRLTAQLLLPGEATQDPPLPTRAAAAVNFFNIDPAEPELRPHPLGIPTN
Chain of Norepinephrine Transporter (P23975 whole entry): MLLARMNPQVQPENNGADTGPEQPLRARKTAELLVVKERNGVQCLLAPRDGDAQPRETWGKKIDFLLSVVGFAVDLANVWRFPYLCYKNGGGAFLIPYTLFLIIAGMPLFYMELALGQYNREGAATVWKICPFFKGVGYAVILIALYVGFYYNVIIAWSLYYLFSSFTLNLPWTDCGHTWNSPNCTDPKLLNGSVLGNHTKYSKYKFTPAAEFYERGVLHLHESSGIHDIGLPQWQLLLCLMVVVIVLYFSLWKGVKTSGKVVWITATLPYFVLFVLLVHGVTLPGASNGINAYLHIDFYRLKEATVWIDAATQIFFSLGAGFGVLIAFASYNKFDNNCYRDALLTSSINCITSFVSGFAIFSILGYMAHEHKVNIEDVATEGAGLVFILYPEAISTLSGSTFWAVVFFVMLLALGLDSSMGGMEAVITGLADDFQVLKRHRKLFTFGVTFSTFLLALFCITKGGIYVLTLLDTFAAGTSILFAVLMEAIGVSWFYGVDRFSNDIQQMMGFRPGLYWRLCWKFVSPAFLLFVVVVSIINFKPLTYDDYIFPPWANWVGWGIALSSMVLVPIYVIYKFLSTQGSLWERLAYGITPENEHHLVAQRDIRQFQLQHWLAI
Chain of 5-HT Transporter (P31645 whole entry, species assumed): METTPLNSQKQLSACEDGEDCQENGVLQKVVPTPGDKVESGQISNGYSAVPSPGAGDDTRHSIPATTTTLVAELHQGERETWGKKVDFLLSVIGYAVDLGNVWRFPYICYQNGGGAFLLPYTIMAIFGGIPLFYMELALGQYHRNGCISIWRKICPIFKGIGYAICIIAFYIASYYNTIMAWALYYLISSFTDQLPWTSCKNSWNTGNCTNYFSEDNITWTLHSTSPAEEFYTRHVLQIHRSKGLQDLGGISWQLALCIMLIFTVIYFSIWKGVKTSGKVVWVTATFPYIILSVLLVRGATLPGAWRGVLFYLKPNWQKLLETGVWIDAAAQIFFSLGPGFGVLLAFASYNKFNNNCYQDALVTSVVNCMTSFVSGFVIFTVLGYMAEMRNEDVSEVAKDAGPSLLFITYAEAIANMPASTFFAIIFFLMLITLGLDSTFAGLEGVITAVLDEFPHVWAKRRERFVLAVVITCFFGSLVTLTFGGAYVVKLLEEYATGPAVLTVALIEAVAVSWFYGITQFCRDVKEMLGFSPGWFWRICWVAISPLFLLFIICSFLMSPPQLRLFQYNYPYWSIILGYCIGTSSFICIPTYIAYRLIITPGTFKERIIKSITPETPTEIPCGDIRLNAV
Chain of 5-HT5 (P47898 whole entry, species assumed): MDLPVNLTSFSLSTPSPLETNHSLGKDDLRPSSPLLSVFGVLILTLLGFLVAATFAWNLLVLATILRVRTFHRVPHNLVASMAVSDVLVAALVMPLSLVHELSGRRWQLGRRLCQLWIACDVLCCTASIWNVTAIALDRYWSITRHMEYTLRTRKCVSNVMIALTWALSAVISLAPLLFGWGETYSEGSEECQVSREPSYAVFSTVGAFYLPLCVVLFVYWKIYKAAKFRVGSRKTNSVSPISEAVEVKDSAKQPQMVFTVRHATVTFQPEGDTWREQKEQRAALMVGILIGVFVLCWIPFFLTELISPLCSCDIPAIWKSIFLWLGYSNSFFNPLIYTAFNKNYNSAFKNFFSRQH

`CC(C)(C)OC(=O)N1CCN(Cc2nc3ccccc3n2Cc2ccc(Cl)cc2)CC1` [Compound 25, tert-Butyl 4-({1-[(4-chlorophenyl)methyl]-1H-benzimidazol-2-yl}methyl)piperazine-1-carboxylate]: the Ki in series [1] (clemizole analogs, recombinant human receptor, read-out: binding affinity (Ki) 5-HT2CR) was 2260 nM; in series [2] (clemizole analogs, recombinant human receptor, read-out: binding affinity (Ki) H1), 76 nM; in series [4] (clemizole analogs, recombinant human receptor, read-out: binding affinity (Ki) 5-HT2AR) it was 2380 nM; in [5] (clemizole analogs, recombinant human receptor, read-out: binding affinity (Ki) 5-HT2BR) it was 482 nM. Besides, the going into solution entry in series [3] is on record as “failed to go into solution”.
Take `Clc1ccc(Cn2c(CN3CCCC3)nc3ccccc32)cc1` [clemizole]: the “inhibition of spontaneous convulsive behaviors” value in series [6] (phenotype-based screen) is reported as “effective inhibitor”. Moreover, the Ki is 197 nM in series [7]; 239 nM in series [8]; 402 nM in series [9]; 1.3 nM in series [11]; 25 nM in series [12]. The “inhibition of electrographic seizures” value in [10] (phenotype-based screen) is “effective inhibitor”.
Regarding `CC(N)Cc1ccc2ccoc2c1` (stereo not drawn) [Compound 6-APB, 6-APB], in series [6] (commercial 5-HT2BR/dopamine agonists, three concentrations, 30 and 90 min exposure, threshold ≥40%), the “effect on seizure-like swim behavior (change in mean velocity)” value is on record as “suppressed convulsive swim behaviors in a concentration-dependent manner”. For the same compound, the Ki is 1930 nM in series [8] (known drugs and commercial compounds); 1280 nM in series [13]; 155 nM in series [14]; 2700 nM in series [15]. Besides, the “frequency of electrographic seizure (epileptiform) events” value in [10] (250 μM, 10 min LFP recording, 5 dpf larvae) is “significant changes in the frequency of events; also recorded: significantly suppressed the frequency of electrographic seizure events”.
Regarding `C[C@H]1CNCCc2ccc(Cl)cc21` [LOR], the Ki in series [16] is 1400 nM; in series [17], 3710 nM; in series [13], 700 nM; in series [18], 1980 nM; in series [14], 636 nM.
Turning to `c1ccc2c(c1)nc(CN1CCCC1)n2CC1CCOCC1` [Compound 15], the Ki is > 10000 nM in series [1], 865 nM in series [2], > 10000 nM in series [4] and > 10000 nM in series [5]. The “binding to any human 5-HT2R” value in [19] is recorded as “no significant binding”.
As to `c1cn(CC2CCCCC2)c(CN2CCCC2)n1` [Compound 21], the Ki in [1] (read-out: binding affinity (Ki) 5-HT2CR), in series [2] (read-out: binding affinity (Ki) H1), in [4] (read-out: binding affinity (Ki) 5-HT2AR) and in series [5] (read-out: binding affinity (Ki) 5-HT2BR) was > 10000 nM throughout. In addition, in series [19], the “binding to any human 5-HT2R” value is “no significant binding”.
